{
  "source": "patent EP0114563A1",
  "about": "“Cytostatically effective combination” (SCHERING AKTIENGESELLSCHAFT, priority 1982, dated 1984)",
  "test_system": "human leukemic cells",
  "experiment": "Inhibition of cell proliferation (growth kinetics by cell counting) in culture",
  "settings": "L-Dopa 10 µg/ml, read-out: inhibition in %, based on a control free of active agent",
  "excerpt": "Every second day, the culture medium of each test batch was replaced by fresh medium and active agent.",
  "note": "Read-outs that look alike come from different tables or passages of the source.",
  "data": [
    {"smiles": "N[C@@H](Cc1ccc(O)c(O)c1)C(=O)O", "note": "[L-Dopa, 3-hydroxy-L-tyrosine]", "values": [
      {"measurement": "inhibition at 10 µg/mL", "setting": "72 Hrs.", "value": 18, "unit": "%"},
      {"measurement": "inhibition at 10 µg/mL", "setting": "144 Hrs.", "value": 58, "unit": "%"}
    ]}
  ]
}
